Target: T1, HIV-1 protease (Human immunodeficiency virus type 1 group M subtype B, UniProt P04585)
T1 construct: The enzyme HIV-1 protease exists as a dimer
Experiment: Isothermal denaturation of Oregon Green-labelled HIV-1 protease monitored by fluorescence correlation spectroscopy (FCS)
Assay type: binding
Experimental: HIV-1 Protease. HIV-1 Protease was extensively dialyzed against 0.1 M sodium phosphate, 0.05% NaN3, pH 6.5, at 5° C., using a Pierce Slide-A-Lyzer™ (2,000 MWCO). The protease concentration was approximately 1 mg/mL. There was a slight turbidity after dialysis. Protease recovery was assumed to be 100% (53 nanomoles in 1.1 mL).
A freshly prepared solution of Oregon Green™ Iodoacetamide (Molecular Probes Inc., Cat. No. O-6010; approximately 10 mM in DMSO) was added at zero and 5 hours of incubation to achieve at each time a 3-fold molar ratio of Oregon Green™ to protease. At approximately 8 hours another addition of a 4-fold molar excess was made. After each addition the solution was gently but thoroughly mixed. Incubations were without agitation at 5° C. and continued for 16 hours after the last addition.
The resulting clear solution was chromatographed over a Bio-Gel P-6 Desalting Gel™ column (0.9 cm×25 cm) using 50% volume/volume (v/v) glacial acetic acid/distilled-water as the eluant. […]
The solution of conjugated protease was 0.2 micron filtered and evaluated for Oregon Green™ concentration by extinction and for protease concentration by amino acid analysis. Spectrophotometric results determined an Oregon Green™ concentration of 1.94 μM. […]
Microfuge tubes containing 1.5 mL buffer were placed in a pre-equilibrated 48° C. water bath and the temperature was monitored with a telethermometer. […]
This material was diluted to 10 nM in a 2.0 mL teflon chamber already located on the microscope stage containing the same buffer at room temperature. […] Binning combines the fluorescence measurements from contiguous time-periods. […]
The autocorrelated data were analyzed with a nonlinear least squares (NLLSF) fitting program based on that disclosed in Yamaoka et. al., J. Pharmacobio Dyn., 4, 8-15 (1981). […]
In these experiments, since both native and denatured proteins exist, the calculated results represent an average value for the amount of material in the two states. […] The data were analyzed with weighting values of either zero or single inverse weighting. […]

[1] = HIV-1 protease incubated with compound at 48° C. for 24 minutes, single inverse weighting, FIG. 8B

## CCC[C@@]1(CCc2ccccc2)CC(O)=C([C@H](CC)c2cccc(NS(=O)(=O)c3ccc(C(F)(F)F)cn3)c2)C(=O)O1 [PNU-140690]
48° C., time points 0 to 60 minutes, with vs without compound, FIG. 9
  stabilization of HIV-1 protease against isothermal denaturation (change in apparent diffusion coefficient as a function of time): clearly stabilizes the enzyme
[1]
  G(0) (unimolecular model, autocorrelation curve): 292×10^−3±11.7×10^−3
  diffusion coefficient (unimolecular model, autocorrelation curve): 1.33×10^−6±0.09×10^−6

— patent US6582907B1, “Use of fluorescence correlation spectroscopy to identify compounds that bind to target species under isothermal denaturing conditions” (Pharmacia & Upjohn Company, priority 1999, dated 2003)
